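Where inhibition never reached the appropriate level, the endpoint shown equals the highest concentration tested. Otherwise, values were interpolated linearly from a five-concentration, 48-hour dose response in 96-well plates. GI50 marks 50% less growth. Definition used: TGI = concentration required for complete inhibition of growth.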
Assays:
Test in all cases: NCI-60 cell line screen, 48 h
RPMI-8226 leukemia = system: RPMI-8226 leukemia
SW-620 colon = system: SW-620 colon
HCC-2998 colon = system: HCC-2998 colon
NCI-H460 lung = system: NCI-H460 lung
CCRF-CEM leukemia = system: CCRF-CEM leukemia
COLO 205 colon = system: COLO 205 colon
SK-OV-3 ovarian = system: SK-OV-3 ovarian
SNB-19 CNS = system: SNB-19 CNS
OVCAR-4 ovarian = system: OVCAR-4 ovarian
DU-145 prostate = system: DU-145 prostate

N[C@@H]1CCCC[C@@H]1N.O=C([O-])CN(CP(=O)([O-])[O-])CP(=O)([O-])[O-].[Pt+2]
GI50 (RPMI-8226 leukemia): > 100 µM | TGI (RPMI-8226 leukemia): > 100 µM | GI50 (SW-620 colon): > 100 µM | TGI (SW-620 colon): > 100 µM | GI50 (HCC-2998 colon): > 100 µM | TGI (HCC-2998 colon): > 100 µM | GI50 (NCI-H460 lung): > 100 µM | TGI (NCI-H460 lung): > 100 µM | GI50 (CCRF-CEM leukemia): 29 µM | TGI (CCRF-CEM leukemia): 93.4 µM | GI50 (COLO 205 colon): 50.1 µM | TGI (COLO 205 colon): > 100 µM | GI50 (SK-OV-3 ovarian): > 100 µM | TGI (SK-OV-3 ovarian): > 100 µM | GI50 (SNB-19 CNS): > 100 µM | TGI (SNB-19 CNS): > 100 µM | GI50 (OVCAR-4 ovarian): > 100 µM | TGI (OVCAR-4 ovarian): > 100 µM

O=C(Nc1ccc(Cl)cc1)c1cc(S(=O)(=O)Nc2nnc(-c3ccccc3)c(-c3ccccc3)n2)c(SCc2ccccc2)cc1Cl
GI50 (SW-620 colon): 38.1 µM | TGI (SW-620 colon): > 100 µM | GI50 (HCC-2998 colon): 17.6 µM | TGI (HCC-2998 colon): 33.7 µM | GI50 (NCI-H460 lung): 25.2 µM | TGI (NCI-H460 lung): 81.8 µM | GI50 (DU-145 prostate): 37.2 µM | TGI (DU-145 prostate): > 62.1 µM | GI50 (CCRF-CEM leukemia): 29.7 µM | TGI (CCRF-CEM leukemia): 76.8 µM | GI50 (COLO 205 colon): 23.8 µM | TGI (COLO 205 colon): > 60.3 µM | GI50 (SK-OV-3 ovarian): > 44.2 µM | TGI (SK-OV-3 ovarian): > 60.7 µM | GI50 (SNB-19 CNS): 37.9 µM | TGI (SNB-19 CNS): > 67 µM | GI50 (OVCAR-4 ovarian): 49.8 µM | TGI (OVCAR-4 ovarian): > 85.4 µM

C=C1CC2(CCCC3(CC(=C)C(=O)O3)C2(C)C)OC1=O (centres undefined)
TGI (RPMI-8226 leukemia): 3.57 µM | TGI (SW-620 colon): 4.26 µM | TGI (NCI-H460 lung): 46.3 µM | TGI (DU-145 prostate): 15.8 µM | TGI (CCRF-CEM leukemia): 5.74 µM | TGI (COLO 205 colon): 4.61 µM | TGI (SK-OV-3 ovarian): 46.2 µM | TGI (SNB-19 CNS): 32.9 µM | TGI (OVCAR-4 ovarian): 20.2 µM

NC(=S)N/N=C\c1nccc2c(N)cccc12
GI50 (RPMI-8226 leukemia): 0.223 µM | TGI (RPMI-8226 leukemia): > 82.8 µM | GI50 (SW-620 colon): 0.476 µM | TGI (SW-620 colon): > 100 µM | GI50 (HCC-2998 colon): 0.374 µM | TGI (HCC-2998 colon): > 100 µM | GI50 (NCI-H460 lung): 0.303 µM | TGI (NCI-H460 lung): 2.04 µM | GI50 (DU-145 prostate): 0.278 µM | TGI (DU-145 prostate): 2.38 µM | GI50 (COLO 205 colon): 1.09 µM | TGI (COLO 205 colon): > 100 µM | GI50 (SK-OV-3 ovarian): 0.541 µM | TGI (SK-OV-3 ovarian): > 100 µM | GI50 (SNB-19 CNS): 0.557 µM | TGI (SNB-19 CNS): > 100 µM | GI50 (OVCAR-4 ovarian): 0.414 µM | TGI (OVCAR-4 ovarian): > 100 µM

CCCCN(CCCC)C(=O)C(=O)C(C)C(=O)CC (centres undefined)
TGI (RPMI-8226 leukemia): > 100 µM | TGI (SW-620 colon): > 100 µM | TGI (HCC-2998 colon): > 100 µM | TGI (NCI-H460 lung): > 100 µM | TGI (COLO 205 colon): > 100 µM | TGI (SK-OV-3 ovarian): > 100 µM | TGI (SNB-19 CNS): > 100 µM | TGI (OVCAR-4 ovarian): > 100 µM

BrC1=CC=C2NCCCCCCN=C3C=CC(Br)=CC=C3NCCCCCCN=C2C=C1
TGI (RPMI-8226 leukemia): > 25.5 µM | TGI (SW-620 colon): > 25.5 µM | TGI (HCC-2998 colon): > 25.5 µM | TGI (NCI-H460 lung): > 25.5 µM | TGI (CCRF-CEM leukemia): > 25.5 µM | TGI (SK-OV-3 ovarian): > 25.5 µM | TGI (SNB-19 CNS): > 25.5 µM | TGI (OVCAR-4 ovarian): > 25.5 µM

C1=C(c2ccccc2)SC=C(c2ccccc2)S1
TGI (RPMI-8226 leukemia): > 100 µM | TGI (SW-620 colon): > 100 µM | TGI (NCI-H460 lung): > 100 µM | TGI (DU-145 prostate): > 100 µM | TGI (CCRF-CEM leukemia): > 100 µM | TGI (COLO 205 colon): > 100 µM | TGI (SK-OV-3 ovarian): > 100 µM | TGI (SNB-19 CNS): > 100 µM | TGI (OVCAR-4 ovarian): > 100 µM

O=C(O)c1cscc1Cc1cccs1
TGI (RPMI-8226 leukemia): > 100 µM | TGI (SW-620 colon): > 100 µM | TGI (NCI-H460 lung): > 100 µM | TGI (DU-145 prostate): > 100 µM | TGI (CCRF-CEM leukemia): > 100 µM | TGI (COLO 205 colon): > 100 µM | TGI (SK-OV-3 ovarian): > 100 µM | TGI (SNB-19 CNS): > 100 µM | TGI (OVCAR-4 ovarian): > 100 µM

OCC#Cc1ccccc1C#Cc1ccc(C#Cc2ccccc2C#CCO)s1
GI50 (RPMI-8226 leukemia): 22.2 µM | TGI (RPMI-8226 leukemia): 49.1 µM | GI50 (SW-620 colon): 18.4 µM | TGI (SW-620 colon): 37.3 µM | GI50 (HCC-2998 colon): 14.7 µM | TGI (HCC-2998 colon): 28.8 µM | GI50 (NCI-H460 lung): 24.7 µM | TGI (NCI-H460 lung): 91.5 µM | GI50 (DU-145 prostate): 14.9 µM | TGI (DU-145 prostate): 28.1 µM | GI50 (COLO 205 colon): 17.9 µM | TGI (COLO 205 colon): 48.5 µM | GI50 (SK-OV-3 ovarian): 15.9 µM | TGI (SK-OV-3 ovarian): 34.4 µM | GI50 (SNB-19 CNS): 22.1 µM | TGI (SNB-19 CNS): 42.7 µM | GI50 (OVCAR-4 ovarian): 26.4 µM | TGI (OVCAR-4 ovarian): > 100 µM

Cc1nc2cc(Nc3nc(Nc4ccc(F)cc4)nc(N4CCN(C)CC4)n3)ccc2n1Cc1ccccc1
GI50 (RPMI-8226 leukemia): 1.75 µM | TGI (RPMI-8226 leukemia): 4.28 µM | GI50 (SW-620 colon): 1.79 µM | TGI (SW-620 colon): 3.95 µM | GI50 (NCI-H460 lung): 1.9 µM | TGI (NCI-H460 lung): 3.83 µM | GI50 (DU-145 prostate): 1.75 µM | TGI (DU-145 prostate): 3.37 µM | GI50 (CCRF-CEM leukemia): 1.93 µM | TGI (CCRF-CEM leukemia): 5.47 µM | GI50 (COLO 205 colon): 1.94 µM | TGI (COLO 205 colon): 3.62 µM | GI50 (SK-OV-3 ovarian): 1.9 µM | TGI (SK-OV-3 ovarian): 3.78 µM | GI50 (SNB-19 CNS): 2.47 µM | TGI (SNB-19 CNS): 7.42 µM | GI50 (OVCAR-4 ovarian): 2.2 µM | TGI (OVCAR-4 ovarian): 5.87 µM

CC1CCP(=O)(c2ccccc2)CC1 (centres undefined)
TGI (RPMI-8226 leukemia): > 100 µM | TGI (SW-620 colon): > 100 µM | TGI (HCC-2998 colon): > 100 µM | TGI (NCI-H460 lung): > 100 µM | TGI (CCRF-CEM leukemia): > 100 µM | TGI (COLO 205 colon): > 100 µM | TGI (SK-OV-3 ovarian): > 100 µM | TGI (SNB-19 CNS): > 100 µM | TGI (OVCAR-4 ovarian): > 100 µM

CC(=O)[C-](C(C)=O)c1ccccc1.CC(=O)[C-](C(C)=O)c1ccccc1.CC[O-].CC[O-].[Ti+4]
GI50 (RPMI-8226 leukemia): > 100 µM | TGI (RPMI-8226 leukemia): > 100 µM | GI50 (SW-620 colon): > 100 µM | TGI (SW-620 colon): > 100 µM | GI50 (HCC-2998 colon): > 100 µM | TGI (HCC-2998 colon): > 100 µM | GI50 (COLO 205 colon): > 100 µM | TGI (COLO 205 colon): > 100 µM | GI50 (SK-OV-3 ovarian): > 100 µM | TGI (SK-OV-3 ovarian): > 100 µM | GI50 (SNB-19 CNS): > 100 µM | TGI (SNB-19 CNS): > 100 µM | GI50 (OVCAR-4 ovarian): > 100 µM | TGI (OVCAR-4 ovarian): > 100 µM

COc1cc(Cl)c2c3c(c(C(=O)c4ccccc4)oc13)CCC2
TGI (RPMI-8226 leukemia): > 100 µM | TGI (SW-620 colon): > 100 µM | TGI (HCC-2998 colon): > 100 µM | TGI (NCI-H460 lung): > 100 µM | TGI (CCRF-CEM leukemia): > 100 µM | TGI (COLO 205 colon): > 100 µM | TGI (SK-OV-3 ovarian): > 100 µM | TGI (SNB-19 CNS): > 100 µM | TGI (OVCAR-4 ovarian): > 100 µM

CC(O)(CNS(=O)(=O)c1ccccc1)c1ccccc1 (centres undefined)
TGI (RPMI-8226 leukemia): > 100 µM | TGI (SW-620 colon): > 100 µM | TGI (NCI-H460 lung): > 100 µM | TGI (DU-145 prostate): > 100 µM | TGI (CCRF-CEM leukemia): > 100 µM | TGI (COLO 205 colon): > 100 µM | TGI (SK-OV-3 ovarian): > 100 µM | TGI (SNB-19 CNS): > 100 µM | TGI (OVCAR-4 ovarian): > 100 µM

O=[N+]([O-])/C=C\c1c[nH]c2ccc(OCc3ccccc3)cc12
TGI (RPMI-8226 leukemia): 4.62 µM | TGI (SW-620 colon): 7.31 µM | TGI (HCC-2998 colon): 3.66 µM | TGI (NCI-H460 lung): 25.1 µM | TGI (DU-145 prostate): 22.2 µM | TGI (CCRF-CEM leukemia): > 100 µM | TGI (COLO 205 colon): 13.4 µM | TGI (SK-OV-3 ovarian): 31.6 µM | TGI (SNB-19 CNS): 16.5 µM

O=[N+]([O-])c1ccc(/C=C(/c2ccc([N+](=O)[O-])o2)S(=O)(=O)c2ccccc2)o1
TGI (RPMI-8226 leukemia): 0.483 µM | TGI (SW-620 colon): 5.55 µM | TGI (NCI-H460 lung): 60.1 µM | TGI (DU-145 prostate): 28 µM | TGI (COLO 205 colon): 4.67 µM | TGI (SK-OV-3 ovarian): 90.8 µM | TGI (SNB-19 CNS): 35.7 µM | TGI (OVCAR-4 ovarian): 15.5 µM

CCCCCCNc1nc(N2CCOCC2)c2[nH]c(NCCCCCC)nc2n1
GI50 (RPMI-8226 leukemia): 1.91 µM | TGI (RPMI-8226 leukemia): 5.42 µM | GI50 (SW-620 colon): 1.44 µM | TGI (SW-620 colon): 2.76 µM | GI50 (HCC-2998 colon): 1.7 µM | TGI (HCC-2998 colon): 3.07 µM | GI50 (NCI-H460 lung): 1.55 µM | TGI (NCI-H460 lung): 2.97 µM | GI50 (DU-145 prostate): 1.51 µM | TGI (DU-145 prostate): 2.83 µM | GI50 (COLO 205 colon): 1.89 µM | TGI (COLO 205 colon): 3.6 µM | GI50 (SK-OV-3 ovarian): 1.73 µM | TGI (SK-OV-3 ovarian): 3.14 µM | GI50 (SNB-19 CNS): 1.8 µM | TGI (SNB-19 CNS): 3.41 µM | GI50 (OVCAR-4 ovarian): 1.43 µM | TGI (OVCAR-4 ovarian): 2.87 µM
